According to PubChem BioAssay (NCI):
Several values for one entry are separate records, joined by “and”; a condition that tells them apart may be missing. Equal values may be shown once.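 Cultured in 96-well plates, cells were exposed to test compound for 48 hours across five concentrations. GI50 marks 50% less growth. The concentration for full growth arrest is given as TGI.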

What was measured:
Assay in all cases: NCI anticancer screen, dose series, 48 h
[1] = tested on: HS 578T breast
[2] = tested on: HOP-92 NSCLC
[3] = tested on: MDA-MB-231 breast
[4] = tested on: SF-268 CNS
[5] = tested on: TK-10 renal
[6] = tested on: HL-60(TB) leukemia
[7] = tested on: OVCAR-5 ovarian
[8] = tested on: EKVX NSCLC
[9] = tested on: U251 CNS
[10] = tested on: UACC-257 melanoma

| SMILES | TGI [1] [µM] | TGI [2] | TGI [3] [µM] | TGI [4] | TGI [5] [µM] | TGI [6] | TGI [7] | TGI [8] | TGI [9] | TGI [10] | GI50 [2] | GI50 [6] | GI50 [7] [µM] | GI50 [8] [µM] | GI50 [9] [µM] | GI50 [10] [µM] |
| --- | --- | --- | --- | --- | --- | --- | --- | --- | --- | --- | --- | --- | --- | --- | --- | --- |
| CC12CC(c3ccccc3O1)C(C(=O)Nc1nccs1)C(=O)N2 (stereo unspecified) | > 100 | > 100 µM | > 100 | > 100 µM | > 100 | > 100 µM | > 100 µM | 90.7 µM | > 100 µM | > 100 µM |  |  |  |  |  |  |
| Oc1ccc(Nc2nc(Cl)c3[nH]cnc3n2)cc1 | > 100 | 38.2 µM | > 100 | > 100 µM | > 100 | > 100 µM | > 100 µM | > 100 µM | > 100 µM | > 100 µM |  |  |  |  |  |  |
| CCC1OC2(C)CC(C#N)(C#N)C1(C#N)C(=N)O2 (stereo unspecified) | > 100 | > 100 µM | > 100 | > 100 µM | > 100 | > 100 µM | > 100 µM | > 100 µM | > 100 µM | > 100 µM |  |  |  |  |  |  |
| COC1OC(C)/C(=N/O)C2OC(C)(C)OC12 (stereo unspecified) | > 100 | > 100 µM | > 100 | > 100 µM | > 100 | > 100 µM | > 100 µM | > 100 µM | > 100 µM | > 100 µM |  |  |  |  |  |  |
| C[C@H](NC(=O)C(C)(Cc1ccc(O)cn1)NC(=O)c1ccccc1)c1ccccc1 (stereo partly specified) | > 100 | > 100 µM | > 100 | > 100 µM | > 100 | > 100 µM | > 100 µM | > 100 µM | > 100 µM | > 100 µM |  |  |  |  |  |  |
| Clc1cc(Cl)nc(Nc2ccc3c(c2)CCC3)n1 | > 100 | > 100 µM | > 100 | > 100 µM | > 100 | 73 µM | > 100 µM | 71.5 µM | > 100 µM | > 100 µM |  |  |  |  |  |  |
| CCOC(=O)c1c(SC(=O)c2ccc(Cl)cc2)n(-c2ccccc2)c(=S)n(-c2ccccc2)c1=O | > 100 | > 100 µM | > 100 | > 100 µM | > 100 | > 100 µM | > 100 µM | > 100 µM | > 100 µM | > 100 µM |  |  |  |  |  |  |
| CC1(C)CC(=O)C2=C(C1)NC(=S)C(C#N)C2c1ccccc1 (stereo unspecified) | > 100 | > 100 µM | > 100 | > 100 µM | > 100 | > 100 µM | > 100 µM | > 100 µM | > 100 µM | > 100 µM |  |  |  |  |  |  |
| COc1c(NC(C)=O)c2ccccc2c2ccccc12 | > 100 | > 100 µM | > 100 | > 100 µM | > 100 | > 100 µM | > 100 µM | > 100 µM | > 100 µM | > 100 µM |  |  |  |  |  |  |
| CSCCC(NC(=O)C(Cc1c[nH]c2ccccc12)NC(=O)CCNC(=O)OC(C)(C)C)C(=O)NC(CC(=O)O)C(=O)NC(Cc1ccccc1)C(N)=O (stereo unspecified) | > 50 | > 50 µM | > 50 | > 50 µM | > 50 | > 50 µM | > 50 µM | > 50 µM | > 50 µM | > 50 µM |  |  |  |  |  |  |
| COc1ccc(N=C(C)C(C)=Nc2ccc(OC)cc2)cc1 | > 100 | > 100 µM | > 100 | > 100 µM | > 100 | > 100 µM | > 100 µM | > 100 µM | > 100 µM | > 100 µM |  |  |  |  |  |  |
| O=[N+]([O-])/C(Cl)=C(\NCCO)C(Cl)=C(Cl)Cl | > 91.5 | > 100 µM | > 90.7 | > 100 µM | > 100 | 11.4 µM | > 100 µM | > 100 µM | > 100 µM | > 100 µM |  |  |  |  |  |  |
| C[C@@H]([C@H]1CC[C@@]2(C)[C@@H]3CC[C@@H]4C(=CC3=CC[C@]12C)CC[C@H](N(C)C)C4(C)C)N(C)C | > 100 | > 100 µM | > 100 | > 100 µM | > 100 | > 100 µM | > 100 µM | > 100 µM | > 100 µM | > 100 µM |  |  |  |  |  |  |
| CC1=NN(c2ccccc2)C(=O)/C1=C\c1c(C)[nH]n(-c2ccccc2)c1=O | > 100 | 90.5 µM | > 100 | > 100 µM | > 100 | > 100 µM | > 100 µM | > 100 µM | > 100 µM | > 100 µM |  |  |  |  |  |  |
| CNCC(SC)c1ccc(O)c(O)c1 (stereo unspecified) | > 100 | 39.3 µM | > 100 | > 100 µM | 34 | 37.5 µM | > 100 µM | 37.1 µM | > 100 µM | 27.9 µM |  |  |  |  |  |  |
| COC1(C)CCC(OS(C)(=O)=O)CO1 (stereo unspecified) | > 100 | > 100 µM | > 100 | > 100 µM | > 100 | > 100 µM | > 100 µM | > 100 µM | > 100 µM | > 100 µM |  |  |  |  |  |  |

| SMILES | TGI [1] [µM] | TGI [2] | TGI [3] [µM] | TGI [4] | TGI [5] [µM] | TGI [6] | TGI [7] | TGI [8] | TGI [9] | TGI [10] | GI50 [2] | GI50 [6] | GI50 [7] [µM] | GI50 [8] [µM] | GI50 [9] [µM] | GI50 [10] [µM] |
| --- | --- | --- | --- | --- | --- | --- | --- | --- | --- | --- | --- | --- | --- | --- | --- | --- |
| C/C(CC(O)(C(F)(F)F)C(F)(F)F)=N\O | > 10 | > 10 µM | > 10 | > 10 µM | > 10 | > 10 µM | > 10 µM | > 10 µM | > 10 µM | > 10 µM |  |  |  |  |  |  |
| CCN(CC)CC[n+]1ccc2c(C)c3[nH]c4ccccc4c3c(C)c2c1 | 0.933 | 1.94 µM and 4.34 µM and 2.71 µM | 2.93 | 1.07 µM and 1.28 µM and 1.64 µM | 25.3 | 3.7 µM and 0.464 µM and 0.743 µM | 5.15 µM and 15 µM and 7.28 µM | 8.97 µM and 16.4 µM and 4.14 µM | 1.3 µM and 5.1 µM and 1.63 µM | 2.07 µM and 2.59 µM and 1.99 µM | 0.342 µM and 0.833 µM and 0.242 µM | 0.402 µM and < 0.0437 µM | 2.74 | 1.48 | 0.25 | 0.633 |
| O=C(NNC(=O)c1ccncc1)C(=O)Nc1cc(Cl)c(Cl)cc1Cl | > 100 | > 100 µM | > 100 | > 100 µM | > 100 | > 100 µM | > 100 µM | > 100 µM | > 100 µM | > 100 µM |  |  |  |  |  |  |
| O=C1CC(c2cccc([N+](=O)[O-])c2)C2(C(=O)NC(=S)NC2=O)C(c2cccc([N+](=O)[O-])c2)C1 (stereo unspecified) | 84.3 | > 100 µM | 62.4 | 43.4 µM | 47.7 | > 100 µM | > 100 µM | 74.1 µM | 81.3 µM | > 100 µM |  |  |  |  |  |  |
| O=C(CCC(NC(=O)OCc1ccccc1)C(=O)OCc1ccccc1)Nc1cccc(OCc2ccccc2)c1 (stereo unspecified) | 39.4 | 75 µM | 56.5 | 71 µM | 90.3 | 37.6 µM | > 100 µM | > 100 µM | > 100 µM | 55 µM |  |  |  |  |  |  |
| CC(C)(C)c1cc(C(C)(C)C)c(SC2OC(CO)C(O)C(O)C2O)c(O)c1O (stereo unspecified) | 11.6 | > 42.6 µM | 50.9 | 20.4 µM | 46.3 | 14.5 µM | 32.1 µM | > 53.3 µM | 20.3 µM | > 72.6 µM |  |  |  |  |  |  |
| C#CCn1c(I)cc2c(c1=O)COC(=O)[C@]2(O)CC | > 100 | > 100 µM | > 100 | > 100 µM | > 100 | > 100 µM | > 100 µM | > 100 µM | > 100 µM | > 100 µM |  |  |  |  |  |  |
| O=C(NC1=C(Cl)C(=O)c2ccccc2C1=O)C(=O)c1c(O)c2ccccc2oc1=O | > 65 | 32.3 µM | 22.5 | 25.6 µM | 37.7 | 29.1 µM | 26.3 µM | 22.4 µM | 20.9 µM | 3.17 µM |  |  |  |  |  |  |
| O=C(NNC(=O)c1ccc(Cl)cc1NC(=O)C12CC3CC(CC(C3)C1)C2)c1ccc(Cl)cc1 | 46.6 | 51.9 µM | 51.2 | > 100 µM | 57.2 | 58.7 µM | 74.4 µM | 69.8 µM | 45.4 µM | 66.1 µM |  |  |  |  |  |  |
| C[C@@H]1C[C@@H]2OC(=O)[C@]3(C)[C@H]2[C@@H](OC3(C)O)[C@]2(C)C(=O)C=C[C@@H]12 (stereo partly specified) | > 100 | 38.9 µM | 64.5 | > 100 µM | > 100 | 11.2 µM | 41 µM | 49.2 µM | > 100 µM | 50.2 µM |  |  |  |  |  |  |
| Cc1cc(NS(=O)(=O)c2ccc(Nc3c4ccccc4nc4c(C(=O)NC(CO)(CO)CO)cccc34)cc2)no1 | 52.7 | > 100 µM | > 100 | 60.6 µM | 61.7 | > 100 µM | > 100 µM | > 100 µM | > 100 µM | > 100 µM |  |  |  |  |  |  |
| O=C(Oc1cncc(Cl)c1)c1cc2ccccc2sc1=O | > 100 | > 100 µM | > 100 | > 100 µM | > 100 | > 100 µM | > 100 µM | > 100 µM | > 100 µM | > 100 µM |  |  |  |  |  |  |
| COC(=O)[C@@H]1C=CCN1S(=O)(=O)c1ccc(C)cc1 | > 100 | > 100 µM | > 100 | > 100 µM | > 100 | 53.5 µM | > 100 µM | > 100 µM | > 100 µM | > 100 µM |  |  |  |  |  |  |
| COC(=O)c1ccc(C)cc1C1CN=NC12Cc1cccc(C)c1C2=O (stereo unspecified) | > 100 | > 100 µM | > 100 | > 100 µM | > 100 | 49.8 µM | > 100 µM | > 100 µM | > 100 µM | 66 µM |  |  |  |  |  |  |
| CC(=O)OC1C2CCC3CC2C2(SCCS2)C31 (stereo unspecified) | > 100 | > 100 µM | > 100 | > 100 µM | > 100 | > 100 µM | > 100 µM | > 100 µM | > 100 µM | > 100 µM |  |  |  |  |  |  |
